Where a name gives a salt, the structure may show the parent alone.
molecular target: SHP2 (Homo sapiens (Human), UniProt Q06124); experiment: SHP2 Biochemical Assay (DiFMUP conversion, pIRS1 activating peptide); settings: not given
Procedure: SHP2 activity was monitored by measuring the conversion of the surrogate substrate 6,8-difluoromethylumbelliferyl phosphate (DiFMUP) to the fluorescent product, 6,8-difluoromethylumbelliferone (DiFMU).
SHP2 was pre-incubated with test compounds and the activating peptide pIRS1 (H2N-LN(pY)IDLDLV-(PEG)8-LST(pY)ASINFQK-amide) for 30 min, prior to addition of the […] (DiFMUP), (Thermo Fisher D6567). […] Rates of reaction were then measured over 30 min by monitoring fluorescence on a BMG Pherastar reader at excitation 360 nm/emission 450 nm. IC50 values were calculated from the normalized dose-response plots using four parameter logistic curve fit.

Chain of SHP2 (Q06124 whole entry): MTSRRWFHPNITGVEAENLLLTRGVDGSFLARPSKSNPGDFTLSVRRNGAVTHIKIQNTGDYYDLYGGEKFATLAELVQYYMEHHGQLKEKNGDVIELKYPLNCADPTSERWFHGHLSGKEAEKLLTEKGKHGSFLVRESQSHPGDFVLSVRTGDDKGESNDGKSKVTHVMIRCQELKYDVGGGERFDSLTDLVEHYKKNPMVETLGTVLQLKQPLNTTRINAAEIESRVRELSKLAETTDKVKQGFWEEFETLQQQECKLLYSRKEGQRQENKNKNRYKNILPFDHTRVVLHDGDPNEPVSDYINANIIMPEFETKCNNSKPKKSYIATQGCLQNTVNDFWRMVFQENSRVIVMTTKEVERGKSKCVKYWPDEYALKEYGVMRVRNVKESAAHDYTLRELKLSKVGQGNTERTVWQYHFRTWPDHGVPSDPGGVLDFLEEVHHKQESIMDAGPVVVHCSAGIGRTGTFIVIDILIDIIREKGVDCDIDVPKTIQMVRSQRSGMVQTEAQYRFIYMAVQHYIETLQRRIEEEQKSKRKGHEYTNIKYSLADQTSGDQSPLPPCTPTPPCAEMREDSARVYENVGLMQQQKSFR

SMILES | IC50 [nM]
CN(C)c1cnc2ccc(-c3n[nH]c4nc(N5[C@@H]6CC[C@H]5C[C@@](C)(N)C6)c(CO)nc34)c(Cl)c2n1 [Example 131, {6-[endo-3-amino-3-methyl-8-azabicyclo[3.2.1]octan-8-yl]-3-[5-chloro-3-(dimethylamino)quinoxalin-6-yl]-1H-pyrazolo[3,4-b]pyrazin-5-yl}methanol] | 8.8
Cn1ccnc1Cn1cc2c(Cl)c(-c3c[nH]c4nc(N5[C@@H]6CC[C@H]5C[C@@H](N)C6)cnc34)ccc2n1 [Example 68, endo-8-(7-{4-chloro-2-[(1-methyl-1H-imidazol-2-yl)methyl]-2H-indazol-5-yl}-5H-pyrrolo[2,3-b]pyrazin-3-yl)-8-azabicyclo[3.2.1]octan-3-amine, trihydrochloride salt] | 21
Cn1cc2c(Cl)c(-c3n[nH]c4nc(N5[C@H]6CC[C@@H]5[C@@H](F)[C@@H](N)C6)c(CO)nc34)ccc2n1 (racemic) [Example 78, rac-{6-[(1R,2S,3S,5S)-3-amino-2-fluoro-8-azabicyclo[3.2.1]octan-8-yl]-3-(4-chloro-2-methyl-2H-indazol-5-yl)-1H-pyrazolo[3,4-b]pyrazin-5-yl}methanol] | 15

same assay, conditions: DiFMUP substrate, 0.25 μM pIRS1 peptide, 30 min pre-incubation; average where more than one data point; read-out: SHP2 (IC50)

SMILES | IC50 [nM]
Cc1nc2c(-c3ccc4ncc(N(C)C)nc4c3Cl)n[nH]c2nc1N1[C@@H]2CC[C@H]1C[C@@H](N)C2 [Example 136, 7-{6-[endo-3-amino-8-azabicyclo[3.2.1]octan-8-yl]-5-methyl-1H-pyrazolo[3,4-b]pyrazin-3-yl}-8-chloro-N,N-dimethylquinoxalin-2-amine] | 9
CC(C)Oc1cnc2ccc(-c3n[nH]c4nc(N5[C@H]6CC[C@@H]5[C@@H](F)[C@@H](N)C6)c(CO)nc34)c(Cl)c2n1 [Example 144, {6-[(1R,2S,3S,5S)-3-amino-2-fluoro-8-azabicyclo[3.2.1]octan-8-yl]-3-[5-chloro-3-(propan-2-yloxy)quinoxalin-6-yl]-1H-pyrazolo[3,4-b]pyrazin-5-yl}methanol] | 28
Cc1nc2c(-c3ccc4ncc(N(C)C)nc4c3Cl)n[nH]c2nc1N1[C@H]2CC[C@@H]1[C@@H](F)[C@@H](N)C2 [Example 96, 7-{6-[(1R,2S,3S,5S)-3-amino-2-fluoro-8-azabicyclo[3.2.1]octan-8-yl]-5-methyl-1H-pyrazolo[3,4-b]pyrazin-3-yl}-8-chloro-N,N-dimethylquinoxalin-2-amine] | 4.7
Cc1nc2c(-c3ccc4nn(C)cc4c3Cl)c[nH]c2nc1N1[C@@H]2CC[C@H]1C[C@H](N)C2 [Example 20, exo-8-[7-(4-chloro-2-methyl-2H-indazol-5-yl)-2-methyl-5H-pyrrolo[2,3-b]pyrazin-3-yl]-8-azabicyclo[3.2.1]octan-3-amine] | 10
CC(C)n1cc2c(Cl)c(-c3n[nH]c4nc(N5[C@H]6CC[C@@H]5[C@@H](F)[C@@H](N)C6)c(CO)nc34)ccc2n1 [Example 101, {6-[(1R,2S,3S,5S)-3-amino-2-fluoro-8-azabicyclo[3.2.1]octan-8-yl]-3-[4-chloro-2-(propan-2-yl)-2H-indazol-5-yl]-1H-pyrazolo[3,4-b]pyrazin-5-yl}methanol] | 21
Cc1c(-c2n[nH]c3nc(N4[C@@H]5CC[C@H]4C[C@@H](N)C5)c(CO)nc23)ccc2nn(C)c(Cl)c12 [Example 142, {6-[endo-3-amino-8-azabicyclo[3.2.1]octan-8-yl]-3-(3-chloro-2,4-dimethyl-2H-indazol-5-yl)-1H-pyrazolo[3,4-b]pyrazin-5-yl}methanol] | 13
Cc1nc2c(-c3ccc4ncc(N(C)C)nc4c3Cl)n[nH]c2nc1N1C2CCC1CNC2 [Example 137, 8-Chloro-7-(6-{3,8-diazabicyclo[3.2.1]octan-8-yl}-5-methyl-1H-pyrazolo[3,4-b]pyrazin-3-yl)-N,N-dimethylquinoxalin-2-amine] | 21
Cc1nc2c(-c3ccc4nn(C)c(C#N)c4c3Cl)n[nH]c2nc1N1[C@H]2CC[C@@H]1[C@@H](F)[C@@H](N)C2 [Example 124, 5-{6-[(1R,2S,3S,5S)-3-amino-2-fluoro-8-azabicyclo[3.2.1]octan-8-yl]-5-methyl-1H-pyrazolo[3,4-b]pyrazin-3-yl}-4-chloro-2-methyl-2H-indazole-3-carbonitrile] | 8.1
COc1cnc2ccc(-c3n[nH]c4nc(N5[C@@H]6CC[C@H]5CNC6)c(CO)nc34)c(Cl)c2n1 [Example 112, [3-(5-Chloro-3-methoxyquinoxalin-6-yl)-6-{3,8-diazabicyclo[3.2.1]octan-8-yl}-1H-pyrazolo[3,4-b]pyrazin-5-yl]methanol] | 12
Cn1cc2c(Cl)c(-c3c[nH]c4nc(N5[C@@H]6CCC[C@H]5C[C@@H](N)C6)cnc34)ccc2n1 [Example 6, endo-9-[7-(4-chloro-2-methyl-2H-indazol-5-yl)-5H-pyrrolo[2,3-b]pyrazin-3-yl]-9-azabicyclo[3.3.1]nonan-3-amine] | 9
N[C@H]1C[C@H]2CC[C@@H](C1)N2c1cnc2c(-c3ccc4ccc(=O)[nH]c4c3Cl)c[nH]c2n1 [Example 35, 7-{3-[endo-3-amino-8-azabicyclo[3.2.1]octan-8-yl]-5H-pyrrolo[2,3-b]pyrazin-7-yl}-8-chloro-1,2-dihydroquinolin-2-one, hydrochloride salt] | 190
Cn1cnc2ccc(-c3c[nH]c4nc(N5CC[C@H](N)[C@H](F)C5)cnc34)c(Cl)c21 [Example 74, (3R,4S)-1-[7-(7-chloro-1-methyl-1H-1,3-benzodiazol-6-yl)-5H-pyrrolo[2,3-b]pyrazin-3-yl]-3-fluoropiperidin-4-amine] | 89
Cn1cc2c(Cl)c(-c3c[nH]c4nc(N5C6CCC5CNC6)cnc34)ccc2n1 [Example 9, 4-chloro-5-(3-{3,8-diazabicyclo[3.2.1]octan-8-yl}-5H-pyrrolo[2,3-b]pyrazin-7-yl)-2-methyl-2H-indazole] | 26
CC(C)(C)NC(=O)Cn1cc2c(Cl)c(-c3c[nH]c4nc(N5[C@@H]6CC[C@H]5C[C@@H](N)C6)cnc34)ccc2n1 [Example 60, 2-(5-{3-[endo-3-amino-8-azabicyclo[3.2.1]octan-8-yl]-5H-pyrrolo[2,3-b]pyrazin-7-yl}-4-chloro-2H-indazol-2-yl)-N-tert-butylacetamide] | 12
Cn1nc2ccc(-c3n[nH]c4nc(N5[C@@H]6CC[C@H]5[C@H](F)[C@@H](N)C6)c(CO)nc34)c(Cl)c2c1Cl [Example 102, {6-[(1S,2R,3S,5R)-3-amino-2-fluoro-8-azabicyclo[3.2.1]octan-8-yl]-3-(3,4-dichloro-2-methyl-2H-indazol-5-yl)-1H-pyrazolo[3,4-b]pyrazin-5-yl}methanol] | 15
Cc1nc2c(-c3ccc4nn(C)cc4c3Cl)c[nH]c2nc1N1CCC(C)(N)CC1 [Example 14, 1-[7-(4-chloro-2-methyl-2H-indazol-5-yl)-2-methyl-5H-pyrrolo[2,3-b]pyrazin-3-yl]-4-methylpiperidin-4-amine] | 89
Cn1nc2ccc(-c3c[nH]c4nc(N5[C@@H]6CC[C@H]5C[C@@H](N)C6)cnc34)c(Cl)c2c1C#N [Example 62, 5-{3-[endo-3-amino-8-azabicyclo[3.2.1]octan-8-yl]-5H-pyrrolo[2,3-b]pyrazin-7-yl}-4-chloro-2-methyl-2H-indazole-3-carbonitrile] | 7.1
Cc1nc2c(-c3ccc4nn(C(C)C)c(C#N)c4c3Cl)n[nH]c2nc1N1[C@H]2CC[C@@H]1[C@@H](F)[C@@H](N)C2 [Example 145, 5-{6-[(1R,2S,3S,5S)-3-amino-2-fluoro-8-azabicyclo[3.2.1]octan-8-yl]-5-methyl-1H-pyrazolo[3,4-b]pyrazin-3-yl}-4-chloro-2-(propan-2-yl)-2H-indazole-3-carbonitrile, hydrochloride] | 36
Cn1nc2ccc(-c3n[nH]c4nc(N5[C@@H]6CC[C@H]5[C@@H](F)[C@@H](N)C6)c(CO)nc34)c(F)c2c1Cl [Example 87, {6-[(1S,2S,3S,5R)-3-amino-2-fluoro-8-azabicyclo[3.2.1]octan-8-yl]-3-(3-chloro-4-fluoro-2-methyl-2H-indazol-5-yl)-1H-pyrazolo[3,4-b]pyrazin-5-yl}methanol] | 8
N[C@H]1C[C@@H]2CC[C@H]([C@H]1F)N2c1nc2[nH]nc(-c3ccc4ncc(N5CCC5)nc4c3Cl)c2nc1CO [Example 150, {6-[(1R,2S,3S,5S)-3-amino-2-fluoro-8-azabicyclo[3.2.1]octan-8-yl]-3-[3-(azetidin-1-yl)-5-chloroquinoxalin-6-yl]-1H-pyrazolo[3,4-b]pyrazin-5-yl}methanol] | 15
COc1cnc2ccc(-c3n[nH]c4nc(N5CCC(C)(N)CC5)c(C)nc34)c(Cl)c2n1 [Example 120, 1-[3-(5-chloro-3-methoxyquinoxalin-6-yl)-5-methyl-1H-pyrazolo[3,4-b]pyrazin-6-yl]-4-methylpiperidin-4-amine] | 25
Cc1nc2c(-c3ccc4nn(C)cc4c3Cl)n[nH]c2nc1N1[C@@H]2CC[C@H]1C[C@H](N)C2 [Example 40, exo-8-[3-(4-chloro-2-methyl-2H-indazol-5-yl)-5-methyl-1H-pyrazolo[3,4-b]pyrazin-6-yl]-8-azabicyclo[3.2.1]octan-3-amine, dihydrochloride salt] | 10
Cn1cc2c(Cl)c(-c3c[nH]c4nc(N5[C@@H]6CC[C@H]5C[C@@H](N)C6)c(CO)nc34)ccc2n1 [Example 34, {3-[endo-3-amino-8-azabicyclo[3.2.1]octan-8-yl]-7-(4-chloro-2-methyl-2H-indazol-5-yl)-5H-pyrrolo[2,3-b]pyrazin-2-yl}methanol, hydrochloride salt] | 13
Cc1nc2c(-c3ccc4nn(C)c(Cl)c4c3Cl)n[nH]c2nc1N1[C@H]2CC[C@@H]1[C@@H](F)[C@@H](N)C2 [Example 93, (1R,2S,3S,5S)-8-[3-(3,4-Dichloro-2-methyl-2H-indazol-5-yl)-5-methyl-1H-pyrazolo[3,4-b]pyrazin-6-yl]-2-fluoro-8-azabicyclo[3.2.1]octan-3-amine] | 3.6

Reference: US11466016B2, “Pharmaceutical compounds” (priority 2018, dated 2022)
